Test results from patent US6737383B1, “Herbicidal oxadiazolidines” (priority 1999, dated 2004).

Tests used:
surinam grass = assay: Test B pre/postemergence surinam grass; type: in vivo, Brachiaria decumbens
How it was run: (§1)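 Response is a visual 0-to-10 score relative to untreated plants, where 0 means no effect and 10 means complete control, taken twelve to sixteen days after application. Treatments went onto soil at planting and onto foliage of 1- to 4-leaf plants, using a surfactant-containing non-phytotoxic solvent.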

wheat = assay: Test B pre/postemergence wheat; type: in vivo, Triticum aestivum
How it was run: as §1

rape = assay: Test B pre/postemergence rape; type: in vivo, Brassica napus
How it was run: as §1

soybean = assay: Test B pre/postemergence soybean; type: in vivo, Glycine max
How it was run: as §1

blackgrass = assay: Test B pre/postemergence blackgrass; type: in vivo, Alopecurus myosuroides
How it was run: as §1

morningglory = assay: Test B pre/postemergence morningglory; type: in vivo, Ipomoea hederacea
How it was run: as §1

wild oat = assay: Test B pre/postemergence wild oat; type: in vivo, Avena fatua
How it was run: as §1

pigweed = assay: Test B pre/postemergence pigweed; type: in vivo, Amaranthus retroflexus
How it was run: as §1

smallflower flatsedge = assay: Test B flood test smallflower flatsedge; type: in vivo, Cyperus difformis
How it was run: (§2)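 Flood test on plants grown to the 2-leaf stage; treated plants kept in greenhouse twelve to sixteen days, then visually rated against controls on a 0 (no effect) to 10 (complete control) scale.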

duck salad = assay: Test B flood test duck salad; type: in vivo, Heteranthera limosa
How it was run: as §2

purple nutsedge = assay: Test B pre/postemergence purple nutsedge; type: in vivo, Cyperus rotundus
How it was run: as §1

cocklebur = assay: Test B pre/postemergence cocklebur; type: in vivo, Xanthium strumarium
How it was run: as §1

bamyardgrass = assay: Test B flood test barnyardgrass; type: in vivo, Echinochloa crus-galli
How it was run: as §2

giant foxtail = assay: Test B pre/postemergence giant foxtail; type: in vivo, Setaria faberii
How it was run: as §1

bedstraw = assay: Test B pre/postemergence bedstraw; type: in vivo, Galium aparine
How it was run: as §1

velvetleaf = assay: Test B pre/postemergence velvetleaf; type: in vivo, Abutilon theophrasti
How it was run: as §1

[1] = Postemergence, Rate 62 g/ha, scale 0 to 10, 0 is no effect, 10 is complete control
[2] = Postemergence, Rate 125 g/ha, scale of 0 to 10 where 0 is no effect and 10 is complete control
[3] = Preemergence, Rate 125 g/ha, scale of 0 to 10 where 0 is no effect and 10 is complete control
[4] = Preemergence, Rate 250 g/ha, scale 0 (no effect) to 10 (complete control)
[5] = Rate 250 g/ha, Postemergence, scale 0 to 10, 0 is no effect, 10 is complete control
[6] = Rate 500 g/ha, Postemergence, scale 0 to 10, 0 is no effect, 10 is complete control
[7] = Rate 500 g/ha, Preemergence, scale 0 to 10 (0 no effect, 10 complete control)
[8] = Rate 62 g/ha, Preemergence, scale 0 to 10
[9] = Pre-emergence, Rate 62 g/ha, scale 0 to 10, 0 is no effect, 10 is complete control
[10] = Rate 125 g/ha, Pre-emergence section (flood test species), scale 0 to 10, 0 no effect, 10 complete control
[11] = Rate 250 g/ha, Pre-emergence (flood test species), scale 0 to 10, 0 is no effect, 10 is complete control
[12] = Rate 500 g/ha, Pre-emergence section of Table B, 0 to 10 scale (0 no effect, 10 complete control)

`CC(C)N(C(=O)n1oc(=O)n(CC2=NOCCO2)c1=O)c1ccc(F)cc1F` [Compound 758] was tested, and the “Plant response rating, B. signalgrass” value (surinam grass; [1]) was 4, the “B. signalgrass plant response rating” value (surinam grass; [2]) was 5 and the “B. signalgrass plant response rating” value (surinam grass; Preemergence, Rate 62 g/ha, scale of 0 to 10 where 0 is no effect and 10 is complete control) was 6. For the same compound, the “Plant response rating, B. signalgrass” value (surinam grass; [3]) was 6, the “B. signalgrass plant response rating” value (surinam grass; [4]) was 7 and the “B. signalgrass plant response rating” value (surinam grass; [5]) was 6. For the same compound, the “B. signalgrass plant response rating” value (surinam grass; [6]) was 7, the “B. signalgrass plant response rating” value (surinam grass; [7]) was 8 and the “Plant response rating, Wheat” value (wheat; [1]) was 0. For the same compound, the “Plant response rating, Wheat” value (wheat; [3]) was 5, the “Wheat plant response rating” value (wheat; [4]) was 5 and the “Wheat plant response rating” value (wheat; [8]) was 4. The “Wheat plant response rating” value (wheat; [5]) was 5, the “Wheat plant response rating” value (wheat; [6]) was 6 and the “Wheat plant response rating” value (wheat; [7]) was 7. The “Plant response rating, Rape” value (rape; [1]) was 0, the “Rape plant response rating” value (rape; [2]) was 0 and the “Plant response rating, Rape” value (rape; [3]) was 4. The “Rape plant response rating” value (rape; [4]) was 4, the “Rape plant response rating” value (rape; [8]) was 0 and the “Rape plant response rating” value (rape; [5]) was 0. The “Rape plant response rating” value (rape; [6]) was 2, the “Rape plant response rating” value (rape; [7]) was 8 and the “Plant response rating, Soybean” value (soybean; [1]) was 4. The “Plant response rating, Soybean” value (soybean; [3]) was 0, the “Soybean plant response rating” value (soybean; [4]) was 0 and the “Soybean plant response rating” value (soybean; [8]) was 0. For the same compound, the “Soybean plant response rating” value (soybean; [5]) was 5, the “Soybean plant response rating” value (soybean; [6]) was 5 and the “Soybean plant response rating” value (soybean; [7]) was 0. For the same compound, the “Plant response rating, Blackgrass” value (blackgrass; [1]) was 3, the “Blackgrass plant response rating” value (blackgrass; [2]) was 6 and the “Plant response rating, Blackgrass” value (blackgrass; [3]) was 8. The “Blackgrass plant response rating” value (blackgrass; [4]) was 8, the “Blackgrass plant response rating” value (blackgrass; [8]) was 6 and the “Blackgrass plant response rating” value (blackgrass; [5]) was 6. The “Blackgrass plant response rating” value (blackgrass; [6]) was 6, the “Blackgrass plant response rating” value (blackgrass; [7]) was 9 and the “Plant response rating, Morningglory” value (morningglory; [1]) was 2. The “Morningglory plant response rating” value (morningglory; [2]) was 4, the “Plant response rating, Morningglory” value (morningglory; [3]) was 0 and the “Morningglory plant response rating” value (morningglory; [4]) was 0. For the same compound, the “Morningglory plant response rating” value (morningglory; [8]) was 0, the “Morningglory plant response rating” value (morningglory; [5]) was 4 and the “Morningglory plant response rating” value (morningglory; [6]) was 8. The “Morningglory plant response rating” value (morningglory; [7]) was 0, the “Plant response rating, Wild oats” value (wild oat; [1]) was 0 and the “Plant response rating, Wild oats” value (wild oat; [3]) was 8. For the same compound, the “Wild oats plant response rating” value (wild oat; [4]) was 8, the “Wild oats plant response rating” value (wild oat; [8]) was 5 and the “Wild oats plant response rating” value (wild oat; [5]) was 1. The “Wild oats plant response rating” value (wild oat; [6]) was 2, the “Wild oats plant response rating” value (wild oat; [7]) was 9 and the “Plant response rating, Redroot pigweed” value (pigweed; [1]) was 7. For the same compound, the “Redroot pigweed plant response rating” value (pigweed; [2]) was 8, the “Plant response rating, Redroot pigweed” value (pigweed; [3]) was 8 and the “Redroot pigweed plant response rating” value (pigweed; [4]) was 8. The “Redroot pigweed plant response rating” value (pigweed; [8]) was 8, the “Redroot pigweed plant response rating” value (pigweed; [5]) was 8 and the “Redroot pigweed plant response rating” value (pigweed; [6]) was 8. For the same compound, the “Redroot pigweed plant response rating” value (pigweed; [7]) was 10, the “S. Flatsedge plant response rating” value (smallflower flatsedge; [9]) was 0 and the “S. Flatsedge plant response rating” value (smallflower flatsedge; [10]) was 0. The “S. Flatsedge plant response rating” value (smallflower flatsedge; [11]) was 0, the “S. Flatsedge plant response rating” value (smallflower flatsedge; [12]) was 0 and the “Ducksalad plant response rating” value (duck salad; [9]) was 0. For the same compound, the “Ducksalad plant response rating” value (duck salad; [10]) was 0, the “Ducksalad plant response rating” value (duck salad; [11]) was 0 and the “Ducksalad plant response rating” value (duck salad; [12]) was 0. The “Plant response rating, Nutsedge” value (purple nutsedge; [1]) was 0, the “Nutsedge plant response rating” value (purple nutsedge; [2]) was 0 and the “Plant response rating, Nutsedge” value (purple nutsedge; [3]) was 0. The “Nutsedge plant response rating” value (purple nutsedge; [4]) was 0, the “Nutsedge plant response rating” value (purple nutsedge; [8]) was 0 and the “Nutsedge plant response rating” value (purple nutsedge; [5]) was 0. The “Nutsedge plant response rating” value (purple nutsedge; [6]) was 0, the “Plant response rating, Cocklebur” value (cocklebur; [1]) was 0 and the “Cocklebur plant response rating” value (cocklebur; [2]) was 0. For the same compound, the “Plant response rating, Cocklebur” value (cocklebur; [3]) was 0, the “Cocklebur plant response rating” value (cocklebur; [4]) was 0 and the “Cocklebur plant response rating” value (cocklebur; [8]) was 0. For the same compound, the “Cocklebur plant response rating” value (cocklebur; [5]) was 4, the “Cocklebur plant response rating” value (cocklebur; [6]) was 4 and the “Cocklebur plant response rating” value (cocklebur; [7]) was 0. For the same compound, the “Barnyardgrass plant response rating” value (bamyardgrass; [9]) was 0, the “Barnyardgrass plant response rating” value (bamyardgrass; [10]) was 0 and the “Barnyardgrass plant response rating” value (bamyardgrass; [11]) was 0. The “Barnyardgrass plant response rating” value (bamyardgrass; [12]) was 0, the “Plant response rating, Giant foxtail” value (giant foxtail; [1]) was 8 and the “Giant foxtail plant response rating” value (giant foxtail; [2]) was 9. For the same compound, the “Plant response rating, Giant foxtail” value (giant foxtail; [3]) was 9, the “Giant foxtail plant response rating” value (giant foxtail; [4]) was 10 and the “Giant foxtail plant response rating” value (giant foxtail; [8]) was 9. For the same compound, the “Giant foxtail plant response rating” value (giant foxtail; [5]) was 9, the “Giant foxtail plant response rating” value (giant foxtail; [6]) was 9 and the “Giant foxtail plant response rating” value (giant foxtail; [7]) was 10. For the same compound, the “Bedstraw plant response rating” value (bedstraw; [2]) was 7, the “Plant response rating, Bedstraw” value (bedstraw; [3]) was 1 and the “Bedstraw plant response rating” value (bedstraw; [4]) was 3. For the same compound, the “Bedstraw plant response rating” value (bedstraw; [8]) was 0, the “Bedstraw plant response rating” value (bedstraw; [5]) was 7 and the “Bedstraw plant response rating” value (bedstraw; [6]) was 8. The “Bedstraw plant response rating” value (bedstraw; [7]) was 4, the “Plant response rating, Velvetleaf” value (velvetleaf; [1]) was 5 and the “Plant response rating, Velvetleaf” value (velvetleaf; [3]) was 4. For the same compound, the “Velvetleaf plant response rating” value (velvetleaf; [4]) was 4, the “Velvetleaf plant response rating” value (velvetleaf; [8]) was 2 and the “Velvetleaf plant response rating” value (velvetleaf; [5]) was 6. For the same compound, the “Velvetleaf plant response rating” value (velvetleaf; [6]) was 7 and the “Velvetleaf plant response rating” value (velvetleaf; [7]) was 7.
